Data from ChEMBL document CHEMBL6127052, “Discovery of membrane-targeting amphiphilic honokiol derivatives containing an oxazolethione moiety to combat methicillin-resistant Staphylococcus aureus (MRSA) infections” (Eur J Med Chem, 2024).

Experiments:
Staphylococcus aureus [1] = assay: Antibacterial activity against methicillin-resistant Staphylococcus aureus clinical isolate M12 by CLSI based micro-broth dilution method; type: functional
Staphylococcus aureus [2] = assay: Antibacterial activity against methicillin-resistant Staphylococcus aureus clinical isolate M23 by CLSI based micro-broth dilution method; type: functional
Staphylococcus aureus [3] = assay: Antibacterial activity against methicillin-resistant Staphylococcus aureus clinical isolate M22 by CLSI based micro-broth dilution method; type: functional
Staphylococcus aureus [4] = assay: Antibacterial activity against methicillin-resistant Staphylococcus aureus clinical isolate M13 by CLSI based micro-broth dilution method; type: functional
Escherichia coli = assay: Antibacterial activity against Escherichia coli ATCC 25922 by CLSI based micro-broth dilution method; type: functional
[5] = Hemolytic activity in sheep erythrocytes incubated for 1 hr by absorbance based assay; type: toxicity, cell-based, Ovis aries, Erythrocyte
[6] = Selectivity index, ratio of HC50 for hemolytic activity in sheep erythrocytes to MIC for antibacterial activity against Staphylococcus aureus ATCC 29213; type: toxicity, cell-based, RBC
Staphylococcus aureus [7] = assay: Antibacterial activity against methicillin-resistant Staphylococcus aureus clinical isolate M11 by CLSI based micro-broth dilution method; type: functional
Staphylococcus aureus [8] = assay: Antibacterial activity against methicillin-resistant Staphylococcus aureus clinical isolate M17 by CLSI based micro-broth dilution method; type: functional
Staphylococcus aureus [9] = assay: Antibacterial activity against methicillin-resistant Staphylococcus aureus clinical isolate M20 by CLSI based micro-broth dilution method; type: functional
Staphylococcus aureus [10] = assay: Antibacterial activity against Staphylococcus aureus ATCC 29213 by CLSI based micro-broth dilution method; type: functional
Staphylococcus aureus [11] = assay: Antibacterial activity against methicillin-resistant Staphylococcus aureus clinical isolate M21 by CLSI based micro-broth dilution method; type: functional
Staphylococcus aureus [12] = assay: Antibacterial activity against methicillin-resistant Staphylococcus aureus clinical isolate M16 by CLSI based micro-broth dilution method; type: functional
Staphylococcus aureus [13] = assay: Antibacterial activity against methicillin-resistant Staphylococcus aureus clinical isolate M14 by CLSI based micro-broth dilution method; type: functional
Staphylococcus aureus [14] = assay: Antibacterial activity against methicillin-resistant Staphylococcus aureus N315 by CLSI based micro-broth dilution method; type: functional

Compound: C=CCc1cc(-c2ccc(OCCC[N+](C)(C)CC(=O)NCCCC)c(CC=C)c2)c2oc(=S)n(Cc3cc(Cl)cc(Cl)c3)c2c1.[Br-]
- MIC (Staphylococcus aureus [1]): 8 µg/mL
- MIC (Staphylococcus aureus [2]): 32 µg/mL
- MIC (Staphylococcus aureus [3]): 32 µg/mL
- MIC (Staphylococcus aureus [4]): 32 µg/mL
- MIC (Escherichia coli): > 128 µg/mL
- HC50 at 1 h [5]: 31.3 µg/mL
- selectivity ratio [6]: 0.5
- MIC (Staphylococcus aureus [7]): 32 µg/mL
- MIC (Staphylococcus aureus [8]): 32 µg/mL
- MIC (Staphylococcus aureus [9]): 16 µg/mL
- MIC (Staphylococcus aureus [10]): 64 µg/mL
- MIC (Staphylococcus aureus [11]): 16 µg/mL
- MIC (Staphylococcus aureus [12]): 32 µg/mL
- MIC (Staphylococcus aureus [13]): 32 µg/mL
- MIC (Staphylococcus aureus [14]): 64 µg/mL

Compound: C=CCc1cc(-c2ccc(OCCC[N+](C)(C)CC(=O)NCCCC)c(CC=C)c2)c2oc(=S)n(Cc3cccc(Br)c3)c2c1.[Br-]
- MIC (Staphylococcus aureus [1]): 8 µg/mL
- MIC (Staphylococcus aureus [2]): 16 µg/mL
- MIC (Staphylococcus aureus [3]): 32 µg/mL
- MIC (Staphylococcus aureus [4]): 8 µg/mL
- MIC (Escherichia coli): > 128 µg/mL
- HC50 at 1 h [5]: > 160 µg/mL
- selectivity ratio [6]: > 10
- MIC (Staphylococcus aureus [7]): 8 µg/mL
- MIC (Staphylococcus aureus [8]): 32 µg/mL
- MIC (Staphylococcus aureus [9]): 8 µg/mL
- MIC (Staphylococcus aureus [10]): 16 µg/mL
- MIC (Staphylococcus aureus [11]): 16 µg/mL
- MIC (Staphylococcus aureus [12]): 8 µg/mL
- MIC (Staphylococcus aureus [13]): 8 µg/mL
- MIC (Staphylococcus aureus [14]): 16 µg/mL

Compound: C=CCc1cc(-c2ccc(OCCC[N+](C)(C)CC(=O)NCCCC)c(CC=C)c2)c2oc(=S)n(Cc3cccc(Cl)c3Cl)c2c1.[Br-]
- MIC (Staphylococcus aureus [1]): 8 µg/mL
- MIC (Staphylococcus aureus [2]): 64 µg/mL
- MIC (Staphylococcus aureus [3]): 64 µg/mL
- MIC (Staphylococcus aureus [4]): 64 µg/mL
- MIC (Escherichia coli): > 128 µg/mL
- HC50 at 1 h [5]: 22 µg/mL
- selectivity ratio [6]: 0.7
- MIC (Staphylococcus aureus [7]): 16 µg/mL
- MIC (Staphylococcus aureus [8]): 64 µg/mL
- MIC (Staphylococcus aureus [9]): 8 µg/mL
- MIC (Staphylococcus aureus [10]): 32 µg/mL
- MIC (Staphylococcus aureus [11]): 8 µg/mL
- MIC (Staphylococcus aureus [12]): 64 µg/mL
- MIC (Staphylococcus aureus [13]): 32 µg/mL
- MIC (Staphylococcus aureus [14]): 64 µg/mL

Compound: C=CCc1cc(-c2ccc(OCCC[N+](C)(C)CC(=O)NCCCC)c(CC=C)c2)c2oc(=S)n(Cc3cc(Br)ccc3F)c2c1.[Br-]
- MIC (Staphylococcus aureus [1]): 8 µg/mL
- MIC (Staphylococcus aureus [2]): 16 µg/mL
- MIC (Staphylococcus aureus [3]): 16 µg/mL
- MIC (Staphylococcus aureus [4]): 16 µg/mL
- MIC (Escherichia coli): > 128 µg/mL
- HC50 at 1 h [5]: > 160 µg/mL
- selectivity ratio [6]: > 10
- MIC (Staphylococcus aureus [7]): 8 µg/mL
- MIC (Staphylococcus aureus [8]): 32 µg/mL
- MIC (Staphylococcus aureus [9]): 8 µg/mL
- MIC (Staphylococcus aureus [10]): 16 µg/mL
- MIC (Staphylococcus aureus [11]): 8 µg/mL
- MIC (Staphylococcus aureus [12]): 8 µg/mL
- MIC (Staphylococcus aureus [13]): 8 µg/mL
- MIC (Staphylococcus aureus [14]): 16 µg/mL

Compound: C=CCc1cc(-c2ccc(OCCC[N+](C)(C)CC(=O)NCCCC)c(CC=C)c2)c2oc(=S)n(Cc3ccccc3)c2c1.[Br-]
- MIC (Staphylococcus aureus [1]): 4 µg/mL
- MIC (Staphylococcus aureus [2]): 4 µg/mL
- MIC (Staphylococcus aureus [3]): 4 µg/mL
- MIC (Staphylococcus aureus [4]): 4 µg/mL
- MIC (Escherichia coli): > 128 µg/mL
- HC50 at 1 h [5]: > 160 µg/mL
- selectivity ratio [6]: > 20
- MIC (Staphylococcus aureus [7]): 4 µg/mL
- MIC (Staphylococcus aureus [8]): 8 µg/mL
- MIC (Staphylococcus aureus [9]): 8 µg/mL
- MIC (Staphylococcus aureus [10]): 8 µg/mL
- MIC (Staphylococcus aureus [11]): 4 µg/mL
- MIC (Staphylococcus aureus [12]): 4 µg/mL
- MIC (Staphylococcus aureus [13]): 4 µg/mL
- MIC (Staphylococcus aureus [14]): 8 µg/mL
